From ChEMBL document CHEMBL4396937, “Synthesis of new triazole fused imidazo[2,1-b]thiazole hybrids with emphasis on Staphylococcus aureus virulence factors” (Bioorg Med Chem Lett, 2019) come the findings set out here.

Common to all, as to type: functional
Experiment [1] relates to Bacillus subtilis. Briefly: Antibacterial activity against Bacillus subtilis MTCC 121 assessed as reduction in bacterial growth incubated for 24 hrs by agar well diffusion method. Particulars: MTCC 121, 24 h.
The test system of experiment [2] is Micrococcus luteus. Briefly: Bactericidal activity against Micrococcus luteus MTCC 2470 assessed as reduction in bacterial survival incubated for 24 hrs followed by transfer of microbial suspension to agar plates and measured at 24 hrs post transfer by agar well diffusion method. Particulars: MTCC 2470, 24 h. For orientation: Agar diffusion results depend on both activity and mobility in agar.

Experiment [3] has as its system Escherichia coli. Briefly: Bactericidal activity against Escherichia coli MTCC 739 assessed as reduction in bacterial survival incubated for 24 hrs followed by transfer of microbial suspension to agar plates and measured at 24 hrs post transfer by agar well diffusion method. Particulars: MTCC 739, 24 h.
Experiment [4] relates to Raoultella planticola. Briefly: Antibacterial activity against Klebsiella planticola MTCC 530 assessed as reduction in bacterial growth incubated for 24 hrs by agar well diffusion method. Particulars: MTCC 530, 24 h.
Experiment [5] relates to Escherichia coli. Briefly: Antibacterial activity against Escherichia coli MTCC 739 assessed as reduction in bacterial growth incubated for 24 hrs by agar well diffusion method. Particulars: MTCC 739, 24 h.
For experiment [6], the system named is Pseudomonas aeruginosa. Briefly: Antibacterial activity against Pseudomonas aeruginosa MTCC 2453 assessed as reduction in bacterial growth incubated for 24 hrs by agar well diffusion method. Particulars: MTCC 2453, 24 h.
Experiment [7] has as its system Staphylococcus aureus. Briefly: Bactericidal activity against Staphylococcus aureus MTCC 96 assessed as reduction in bacterial survival incubated for 24 hrs followed by transfer of microbial suspension to agar plates and measured at 24 hrs post transfer by agar well diffusion method. Particulars: MTCC 96, 24 h.
In experiment [8] the test system is Staphylococcus aureus. Briefly: Antibacterial activity against Staphylococcus aureus MLS-16 MTCC 2940 assessed as reduction in bacterial growth incubated for 24 hrs by agar well diffusion method. Particulars: MLS-16 MTCC 2940, 24 h.
The subject of experiment [9] is Candida albicans. Briefly: Fungicidal activity against Candida albicans MTCC 3017 assessed as reduction in fungal survival incubated for 24 hrs followed by transfer of microbial suspension to agar plates and measured at 24 hrs post transfer by agar well diffusion method. Particulars: MTCC 3017, 24 h.
Experiment [10] deals with Raoultella planticola. Briefly: Bactericidal activity against Klebsiella planticola MTCC 530 assessed as reduction in bacterial survival incubated for 24 hrs followed by transfer of microbial suspension to agar plates and measured at 24 hrs post transfer by agar well diffusion method. Particulars: MTCC 530, 24 h.
Experiment [11] has as its system Bacillus subtilis. Briefly: Bactericidal activity against Bacillus subtilis MTCC 121 assessed as reduction in bacterial survival incubated for 24 hrs followed by transfer of microbial suspension to agar plates and measured at 24 hrs post transfer by agar well diffusion method. Particulars: MTCC 121, 24 h.
Experiment [12] has as its system Staphylococcus aureus. Briefly: Antibacterial activity against Staphylococcus aureus MTCC 96 assessed as reduction in bacterial growth incubated for 24 hrs by agar well diffusion method. Particulars: MTCC 96, 24 h.
Experiment [13] has as its system Candida albicans. Briefly: Antifungal activity against Candida albicans MTCC 3017 assessed as reduction in fungal growth incubated for 24 hrs by agar well diffusion method. Particulars: MTCC 3017, 24 h.
For experiment [14], the system named is Staphylococcus aureus. Briefly: Bactericidal activity against Staphylococcus aureus MLS-16 MTCC 2940 assessed as reduction in bacterial survival incubated for 24 hrs followed by transfer of microbial suspension to agar plates and measured at 24 hrs post transfer by agar well diffusion method. Particulars: MLS-16 MTCC 2940, 24 h.
Experiment [15] deals with Pseudomonas aeruginosa. Briefly: Bactericidal activity against Pseudomonas aeruginosa MTCC 2453 assessed as reduction in bacterial survival incubated for 24 hrs followed by transfer of microbial suspension to agar plates and measured at 24 hrs post transfer by agar well diffusion method. Particulars: MTCC 2453, 24 h.
Experiment [16] relates to Micrococcus luteus. Briefly: Antibacterial activity against Micrococcus luteus MTCC 2470 assessed as reduction in bacterial growth incubated for 24 hrs by agar well diffusion method. Particulars: MTCC 2470, 24 h.

Converted amounts (≈) assume the structure as drawn. A value given as a limit tells only on which side of the number the result lay.

For `COc1ccc(-c2nc3sccn3c2C(=O)c2cn(-c3ccc(OC)cc3)nn2)cc1`, the MIC (as a rule, the least concentration at which growth counts as inhibited) in the experiment on Bacillus subtilis [1] was 7.8 µg/mL (≈ 18.1 µM); in the experiment on Raoultella planticola [4] it was 7.8 µg/mL (≈ 18.1 µM); in the experiment on Escherichia coli [5], more than 125 µg/mL; with Pseudomonas aeruginosa [6], more than 125 µg/mL; with Staphylococcus aureus [8] it was 7.8 µg/mL (≈ 18.1 µM); in the experiment with Staphylococcus aureus [12], 15.6 µg/mL (≈ 36.2 µM). In addition, the minimal inhibitory concentration (MIC) in the experiment on Candida albicans [13] and with Micrococcus luteus [16] was 15.6 µg/mL (≈ 36.2 µM) each time. The minimum bactericidal concentration (MBC) (commonly the lowest tested concentration that kills the bacteria rather than only halting them) in the experiment on Micrococcus luteus [2] is 31.2 µg/mL (≈ 72.3 µM); in the experiment on Escherichia coli [3], more than 125 µg/mL; in the experiment on Staphylococcus aureus [7], 31.2 µg/mL (≈ 72.3 µM); in the experiment on Raoultella planticola [10], 15.6 µg/mL (≈ 36.2 µM); in the experiment on Bacillus subtilis [11], 15.6 µg/mL (≈ 36.2 µM); with Staphylococcus aureus [14], 15.6 µg/mL (≈ 36.2 µM). Further, in the experiment with Pseudomonas aeruginosa [15], the MBC is more than 125 µg/mL. Besides, the MFC (usually the lowest tested concentration that kills the fungus rather than only halting it) in the experiment with Candida albicans [9] amounted to 31.2 µg/mL (≈ 72.3 µM).
`COc1ccc(-n2cc(C(=O)c3c(-c4ccc(Cl)cc4)nc4sccn34)nn2)cc1`: the MIC in the experiment with Bacillus subtilis [1] is 3.9 µg/mL (≈ 8.95 µM); in the experiment with Raoultella planticola [4], 3.9 µg/mL (≈ 8.95 µM); in the experiment on Escherichia coli [5], more than 125 µg/mL; with Pseudomonas aeruginosa [6], more than 125 µg/mL; in the experiment with Staphylococcus aureus [8] it was 7.8 µg/mL (≈ 17.9 µM); in the experiment on Staphylococcus aureus [12] it was 3.9 µg/mL (≈ 8.95 µM). The MIC with Candida albicans [13] amounted to 7.8 µg/mL (≈ 17.9 µM); in the experiment with Micrococcus luteus [16], 3.9 µg/mL (≈ 8.95 µM). For the same molecule, the MBC in the experiment with Micrococcus luteus [2] is 7.8 µg/mL (≈ 17.9 µM); with Escherichia coli [3], more than 125 µg/mL; with Staphylococcus aureus [7] it was 7.8 µg/mL (≈ 17.9 µM); in the experiment on Raoultella planticola [10], 7.8 µg/mL (≈ 17.9 µM); in the experiment on Bacillus subtilis [11] it was 7.8 µg/mL (≈ 17.9 µM); with Staphylococcus aureus [14], 15.6 µg/mL (≈ 35.8 µM). Besides, in the experiment on Pseudomonas aeruginosa [15], the MBC is more than 125 µg/mL. In the experiment on Candida albicans [9], the MFC worked out at 15.6 µg/mL (≈ 35.8 µM).
Regarding `COc1cc(-n2cc(C(=O)c3c(-c4ccc(Cl)cc4)nc4sccn34)nn2)cc(OC)c1OC`, the MIC in the experiment on Bacillus subtilis [1] is 3.9 µg/mL (≈ 7.86 µM); with Raoultella planticola [4] it was more than 125 µg/mL; with Escherichia coli [5], more than 125 µg/mL; with Pseudomonas aeruginosa [6] it was more than 125 µg/mL; with Staphylococcus aureus [8], 7.8 µg/mL (≈ 15.7 µM); in the experiment on Staphylococcus aureus [12], 7.8 µg/mL (≈ 15.7 µM). Besides, the MIC in the experiment on Candida albicans [13] and in the experiment with Micrococcus luteus [16] was 15.6 µg/mL (≈ 31.5 µM) in each case. Also, the minimum bactericidal concentration (MBC) is 31.2 µg/mL (≈ 62.9 µM) with Micrococcus luteus [2]; more than 125 µg/mL with Escherichia coli [3]; 15.6 µg/mL (≈ 31.5 µM) in the experiment on Staphylococcus aureus [7]; more than 125 µg/mL in the experiment with Raoultella planticola [10]; 7.8 µg/mL (≈ 15.7 µM) in the experiment with Bacillus subtilis [11]; 15.6 µg/mL (≈ 31.5 µM) with Staphylococcus aureus [14]. In the experiment on Pseudomonas aeruginosa [15], the minimal bactericidal concentration (MBC) was more than 125 µg/mL. Further, the minimum fungicidal concentration (MFC) with Candida albicans [9] came to 31.2 µg/mL (≈ 62.9 µM).
Regarding `O=C(c1cn(-c2ccc(F)cc2)nn1)c1c(-c2ccc(Cl)cc2)nc2sccn12`, the MIC with Bacillus subtilis [1] was 3.9 µg/mL (≈ 9.2 µM); in the experiment on Raoultella planticola [4], 7.8 µg/mL (≈ 18.4 µM); in the experiment on Escherichia coli [5] it was more than 125 µg/mL; in the experiment with Pseudomonas aeruginosa [6] it was more than 125 µg/mL; with Staphylococcus aureus [8] it was 7.8 µg/mL (≈ 18.4 µM); with Staphylococcus aureus [12], 3.9 µg/mL (≈ 9.2 µM). Further, the values for the MIC in the experiment on Candida albicans [13] and with Micrococcus luteus [16] were 15.6 µg/mL (≈ 36.8 µM) and 3.9 µg/mL (≈ 9.2 µM), respectively. The minimal bactericidal concentration (MBC) in the experiment on Micrococcus luteus [2] was 7.8 µg/mL (≈ 18.4 µM); with Escherichia coli [3], more than 125 µg/mL; in the experiment with Staphylococcus aureus [7], 7.8 µg/mL (≈ 18.4 µM); in the experiment with Raoultella planticola [10], 15.6 µg/mL (≈ 36.8 µM); in the experiment with Bacillus subtilis [11], 7.8 µg/mL (≈ 18.4 µM); with Staphylococcus aureus [14], 15.6 µg/mL (≈ 36.8 µM). The MBC in the experiment with Pseudomonas aeruginosa [15] was more than 125 µg/mL. For the same molecule, the minimum fungicidal concentration (MFC) with Candida albicans [9] was more than 125 µg/mL.
With `O=C(c1cn(-c2ccc(F)cc2Br)nn1)c1c(-c2ccc(Cl)cc2)nc2sccn12`, the minimum inhibitory concentration (MIC) was 3.9 µg/mL (≈ 7.76 µM) in the experiment with Bacillus subtilis [1]; 3.9 µg/mL (≈ 7.76 µM) with Raoultella planticola [4]; more than 125 µg/mL with Escherichia coli [5]; more than 125 µg/mL in the experiment with Pseudomonas aeruginosa [6]; 7.8 µg/mL (≈ 15.5 µM) in the experiment with Staphylococcus aureus [8]; 3.9 µg/mL (≈ 7.76 µM) in the experiment on Staphylococcus aureus [12]. Besides, the MIC with Candida albicans [13] was 7.8 µg/mL (≈ 15.5 µM); in the experiment with Micrococcus luteus [16], 3.9 µg/mL (≈ 7.76 µM). Besides, the MBC in the experiment with Micrococcus luteus [2] is 7.8 µg/mL (≈ 15.5 µM); in the experiment with Escherichia coli [3], more than 125 µg/mL; in the experiment on Staphylococcus aureus [7], 7.8 µg/mL (≈ 15.5 µM); with Raoultella planticola [10] it was 7.8 µg/mL (≈ 15.5 µM); in the experiment on Bacillus subtilis [11], 7.8 µg/mL (≈ 15.5 µM); with Staphylococcus aureus [14], 15.6 µg/mL (≈ 31 µM). In the experiment with Pseudomonas aeruginosa [15], the minimal bactericidal concentration (MBC) was more than 125 µg/mL. In addition, in the experiment on Candida albicans [9], the minimum fungicidal concentration (MFC) stood at 15.6 µg/mL (≈ 31 µM).
For the molecule `COc1ccc(-c2nc3sccn3c2C(=O)c2cn(-c3ccc(Br)cc3)nn2)cc1`, the minimum inhibitory concentration (MIC) with Bacillus subtilis [1] is 7.8 µg/mL (≈ 16.2 µM); with Raoultella planticola [4] it was 15.6 µg/mL (≈ 32.5 µM); in the experiment on Escherichia coli [5] it was more than 125 µg/mL; in the experiment on Pseudomonas aeruginosa [6], more than 125 µg/mL; in the experiment with Staphylococcus aureus [8] it was 7.8 µg/mL (≈ 16.2 µM); with Staphylococcus aureus [12], 3.9 µg/mL (≈ 8.12 µM). For the same molecule, the minimum inhibitory concentration (MIC) in the experiment with Candida albicans [13] and with Micrococcus luteus [16] was 7.8 µg/mL (≈ 16.2 µM) throughout. Besides, the MBC with Micrococcus luteus [2] is 15.6 µg/mL (≈ 32.5 µM); with Escherichia coli [3], more than 125 µg/mL; with Staphylococcus aureus [7], 7.8 µg/mL (≈ 16.2 µM); with Raoultella planticola [10] it was 31.2 µg/mL (≈ 65 µM); with Bacillus subtilis [11], 15.6 µg/mL (≈ 32.5 µM); in the experiment on Staphylococcus aureus [14], 15.6 µg/mL (≈ 32.5 µM). Further, in the experiment with Pseudomonas aeruginosa [15], the MBC was more than 125 µg/mL. Further, in the experiment with Candida albicans [9], the minimum fungicidal concentration (MFC) is 15.6 µg/mL (≈ 32.5 µM).
